These results are taken from article PMC4273943 (Molecular microbiology, 2011).

The target of this assay is CRP homolog RC1_3788 (CgrA) (Rhodospirillum centenum, UniProt B6IXV7). The experiment in a line: isothermal titration calorimetry. The class given is binding.

As a reminder, the Kd is the concentration at which binding is half-saturated. High values mean a looser complex, low ones a tighter complex. `Nc1nc2c(ncn2[C@@H]2O[C@@H]3COP(=O)(O)O[C@H]3[C@H]2O)c(=O)[nH]1` [cGMP] gave a Kd of 38.5 nM.
